Patent US20260193163A1, “CRYSTAL FORM OF L-ARGININE (S)-2-(1-ACETOXY-N-PENTYL)BENZOATE, AND PREPARATION METHOD THEREFOR AND USE THEREOF” (JIANGSU KANION PHARMACEUTICAL CO., LTD., priority 2023, published 2026)

Tests used:
[1] = Intrinsic dissolution rate in SGF or FeSSIF; format: physicochemical; settings: 37° C., 100 rpm, 5-120 min, HPLC
Method: Samples of crystal form I (25 mg each) were weighed, placed into intrinsic dissolution rate metal modules, and maintained at a pressure of 20 pounds for 30 s and then placed in 20 mL of SGF (Simulated Gastric Fluid) or FeSSIF (Fed-State Simulated Intestinal Fluid) physiological medium, respectively. The medium was maintained at 37° C. and a rotation speed at 100 rpm throughout the process. Then, at 5, 15, 30, 45, 60, 90, and 120 min, respectively, a 0.5 mL aliquot of the solution was taken and filtered through a 0.22 μm aqueous microfiltration membrane. And the volume was replenished with 0.5 mL of the corresponding physiological medium. The concentration was determined according to an HPLC content assay method.

[2] = Crystal form stability study (PXRD, DSC, TGA on day 0, 5, 10); format: physicochemical; settings: 10 days
Method: Samples of crystal form I were subjected to physical stability tests under different storage conditions. The storage conditions were respectively: • (1) High temperature: 60° C. • (2) High humidity: RH 90%±5% • (3) Under light exposure: 4500 lx±500 lx, with the total illumination from the light source reaching 1.2×10^6 lux·hr PXRD, DSC, and TGA tests were performed on the samples on day 0, day 5, and day 10, respectively, to investigate the stability of the samples under high temperature, high humidity, and light exposure conditions. The experimental results are detailed in FIG. 8 to FIG. 16 of the description.

CCCC[C@H](OC(C)=O)c1ccccc1C(=O)O [crystal form I, L-arginine (S)-2-(1-acetoxy-n-pentyl)benzoate]
Dissolution rate compared with the solid obtained in Comparative Example 1 [1]: significantly higher
Change of powder diffraction pattern, DSC trace and TGA trace (physical stability, crystal form transformation) ([2]; high humidity RH 90%±5%): no significant difference
Change of powder diffraction pattern, DSC trace and TGA trace (physical stability, crystal form transformation) ([2]; high temperature 60° C.): no significant difference
Change of powder diffraction pattern, DSC trace and TGA trace (physical stability, crystal form transformation) ([2]; light exposure 4500 lx±500 lx, total illumination 1.2×10^6 lux·hr): no significant difference
